Data as given in patent US7217710B2, “Substituted pyrazolopyrimidines” (SmithKline Beecham Corporation, priority 2001, dated 2007).

Tests used:
[1] = target: T1, GST-TIE2 (intracellular domains of human TIE2) (Homo sapiens, UniProt Q02763); assay: TIE-2 Enzyme Assay (TIE2-E2), LANCE method; format: biochemical; details: for IC50: read-out: TIE2 PIC50 TIE2-E2 assay
T1 construct: made in house
Summary of the method: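 GST-tagged human TIE2 intracellular domain (aa 762–1104), preactivated 2 h with 80 μM ATP, then 5 nM enzyme run 2 h at room temperature with 1 μM biotinylated D1–15 peptide, 80 μM ATP, HEPES pH 7.4, 2.4% DMSO. Phosphotyrosine detected by LANCE (Eu anti-pTyr/streptavidin-APC) after EDTA stop; IC50 by nonlinear regression, reported as pIC50.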

[2] = target: T2, TIE2 intracellular domain/c-fms extracellular domain (TIE2/c-fms) chimeric protein (Homo sapiens, UniProt Q02763); assay: TIE-2 Autophosphorylation Assay (TIE2-C); format: cell-based; details: TIE2/c-fms expressing mouse 3T3 cells
T2 construct: fused on or other part: c-fms (CSF1R) extracellular domain in place of TIE2's own ectodomain; it serves as the capture handle for the anti-c-fms ELISA; P07333 (Macrophage colony-stimulating factor 1 receptor)
T2 sequence (Q02763 whole entry, change not shown, the tested form may be a part): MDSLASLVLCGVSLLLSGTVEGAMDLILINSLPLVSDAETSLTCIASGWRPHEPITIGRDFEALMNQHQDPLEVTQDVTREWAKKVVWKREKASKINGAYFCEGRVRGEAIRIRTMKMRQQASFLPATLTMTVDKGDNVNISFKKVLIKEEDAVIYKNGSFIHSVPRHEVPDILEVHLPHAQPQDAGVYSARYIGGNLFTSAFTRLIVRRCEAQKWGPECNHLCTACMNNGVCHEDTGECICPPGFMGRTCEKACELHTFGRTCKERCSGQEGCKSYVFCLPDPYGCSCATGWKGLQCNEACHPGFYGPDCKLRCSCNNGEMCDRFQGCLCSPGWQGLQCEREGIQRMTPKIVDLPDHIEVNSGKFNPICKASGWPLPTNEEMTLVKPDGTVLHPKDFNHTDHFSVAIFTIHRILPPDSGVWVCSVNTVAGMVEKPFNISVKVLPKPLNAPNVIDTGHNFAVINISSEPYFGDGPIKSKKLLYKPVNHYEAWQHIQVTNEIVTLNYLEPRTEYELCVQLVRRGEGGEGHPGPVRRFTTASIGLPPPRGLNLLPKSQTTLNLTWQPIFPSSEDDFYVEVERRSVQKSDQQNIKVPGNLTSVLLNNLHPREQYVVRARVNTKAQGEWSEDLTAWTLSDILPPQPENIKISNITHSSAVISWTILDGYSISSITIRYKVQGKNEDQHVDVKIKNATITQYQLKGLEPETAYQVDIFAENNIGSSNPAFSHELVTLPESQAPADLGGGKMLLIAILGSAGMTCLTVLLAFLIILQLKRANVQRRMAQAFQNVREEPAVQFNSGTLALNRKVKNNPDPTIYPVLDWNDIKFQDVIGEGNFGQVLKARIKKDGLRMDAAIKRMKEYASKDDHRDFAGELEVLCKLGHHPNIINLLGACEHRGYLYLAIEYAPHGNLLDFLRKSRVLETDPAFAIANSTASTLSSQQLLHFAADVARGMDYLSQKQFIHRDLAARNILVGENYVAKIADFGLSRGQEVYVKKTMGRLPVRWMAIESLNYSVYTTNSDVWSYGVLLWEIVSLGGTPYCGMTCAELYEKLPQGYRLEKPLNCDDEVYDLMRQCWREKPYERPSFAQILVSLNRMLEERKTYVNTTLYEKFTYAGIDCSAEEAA
Protocol: TIE-2 Autophosphorylation Assay (TIE2-C)
The TIE-2 autophosphorylation assay uses an ELISA method and a TIE2 intracellular domain/c-fms extracellular domain (TIE2/c-fms) chimeric protein expressing mouse 3T3 cell line. This assay measures the autophosphorylation level of TIE2 protein expressed in cells. The cells are cultured in 96 well plates and grown in high glucose DMEM containing 10% serum at 37° C. in a humidified 10% CO2, 90% air incubator. On the day of the assay, the serum containing medium is removed from the cells and replaced with serum free medium for one hour. The test compound (diluted from a 10 mM stock in DMSO, final DMSO concentration is 0.1%) is incubated with TIE2/c-fms expressing cells for 30 minutes in serum free DMEM. Intrinsic cellular dephosphorylation of the receptor is blocked by the addition of the tyrosine phosphatase inhibitor, sodium orthovanadate, from a 100 mM aqueous stock to a final concentration of 1 mM. The culture media is removed by aspiration and the cells incubated for 30 to 60 mins on ice with lysis buffer containing 137 mM NaCl, 2 mM EDTA, 10% glycerol, 1 mM sodium ortho vanadate, 1×tyrosine phosphatase inhibitor cocktail (Sigma) and complete protease inhibitor cocktail (Roche) in 20 mM Tris-HCl (pH8.0). The cell extracts are transferred into Rat anti-c-fms antibody (Zymed-clone 12-2d6) ([…]) coated 96 well plates and incubated for 12 hrs at 4 degrees. The extracts are removed by aspiration and the plate, washed in a buffer comprising PBS, 0.05% Tween-20, 0.05% NP-40 and 5% SuperBlock (Pierce) followed by incubation with an HRP (horseradish peroxidase) conjugated anti-phosphotyrosine antibody, (Upstate Biotech) The plates are again washed with the aforementioned wash buffer and the colorimetric HRP substrate, TMB is added. The reaction progresses for 90 seconds and is stopped with the addition of 2M H2SO4. The optical density at 450 nm derived from HRP catalyzed TMB is measured with a plate reader capable of reading at the appropriate wavelength (e.g. SpectroMax from Molecular Dynamics). The percent inhibition of activity is calculated relative to non-vanadate treated control wells. The concentration of test compound that inhibits 50% of activity (IC50) is interpolated using nonlinear regression (Levernberg-Marquardt) and the equation, y=Vmax (1−x/(K+x))+Y2, where “K” is equal to the IC50.

[3] = target: T3, GST-VEGFR2 (Homo sapiens, UniProt P35968); assay: VEGF-R2 Enzyme Assay (VEGF-E2), LANCE method; format: biochemical; details: for IC50: read-out: VEGFR2 PIC50 VEGFR-E2 assay
T3 construct: GST-VEGFR2, baculovirus expressed recombinant constructs of the intracellular domains; made in house
T3 sequence (P35968 786-1356 limits assumed): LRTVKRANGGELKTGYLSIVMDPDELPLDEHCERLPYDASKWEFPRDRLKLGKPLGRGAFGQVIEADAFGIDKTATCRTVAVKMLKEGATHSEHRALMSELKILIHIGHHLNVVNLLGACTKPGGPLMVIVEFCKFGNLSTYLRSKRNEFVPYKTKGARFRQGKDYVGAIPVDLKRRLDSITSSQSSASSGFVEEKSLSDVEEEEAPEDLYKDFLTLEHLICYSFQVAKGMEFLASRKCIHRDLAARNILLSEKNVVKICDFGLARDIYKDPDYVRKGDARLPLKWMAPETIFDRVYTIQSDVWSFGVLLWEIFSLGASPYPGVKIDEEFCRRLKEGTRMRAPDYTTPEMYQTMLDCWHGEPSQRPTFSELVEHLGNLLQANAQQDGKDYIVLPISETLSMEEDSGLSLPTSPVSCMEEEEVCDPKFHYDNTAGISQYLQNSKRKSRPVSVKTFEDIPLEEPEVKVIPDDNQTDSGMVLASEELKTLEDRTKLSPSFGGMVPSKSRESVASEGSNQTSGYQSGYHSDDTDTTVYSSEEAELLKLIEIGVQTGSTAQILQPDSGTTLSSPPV

[4] = target: T4, catalytic domain of human VEGFR3 (Homo sapiens, UniProt P35916, H890Q); assay: VEGFR-3 Homogenous Time-Resolved Fluorescence Assay (VEGFR-3-HTRF); format: biochemical; details: for IC50: read-out: VEGFR3 PIC50 VEGFR-3-HTRF assay
T4 construct: made in house; host or cells: Sf9 insect cells (baculovirus, pFastBac1)
T4 sequence (P35916 with tags, fused parts or gaps isoform P35916-1 H890Q): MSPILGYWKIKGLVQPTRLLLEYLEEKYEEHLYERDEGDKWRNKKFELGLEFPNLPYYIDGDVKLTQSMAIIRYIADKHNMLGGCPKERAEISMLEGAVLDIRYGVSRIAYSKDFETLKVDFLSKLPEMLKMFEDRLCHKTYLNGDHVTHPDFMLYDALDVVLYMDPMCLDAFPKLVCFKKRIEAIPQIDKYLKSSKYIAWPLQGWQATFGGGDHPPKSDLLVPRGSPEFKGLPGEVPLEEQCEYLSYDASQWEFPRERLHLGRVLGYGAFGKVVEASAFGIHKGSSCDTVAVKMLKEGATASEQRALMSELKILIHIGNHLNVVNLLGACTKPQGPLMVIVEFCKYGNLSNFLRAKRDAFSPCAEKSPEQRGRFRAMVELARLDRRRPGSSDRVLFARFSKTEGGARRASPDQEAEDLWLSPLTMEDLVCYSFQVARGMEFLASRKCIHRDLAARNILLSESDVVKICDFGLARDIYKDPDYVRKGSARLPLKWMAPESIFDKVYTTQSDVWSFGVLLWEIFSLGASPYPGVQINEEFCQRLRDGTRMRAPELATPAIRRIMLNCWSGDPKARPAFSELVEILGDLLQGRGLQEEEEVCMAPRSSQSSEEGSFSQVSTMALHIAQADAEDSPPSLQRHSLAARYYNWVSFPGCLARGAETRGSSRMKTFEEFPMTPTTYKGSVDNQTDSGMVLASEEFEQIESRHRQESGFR
Description: VEGFR—3-Homogenous Time-Resolved Fluorescence Assay (VEGFR-3-HTRF)
This assay assesses Vascular Endothelial Growth Factor 3 (VEGFR3) tyrosine kinase inhibitory activity in substrate phosphorylation assays. The assay examines the ability of small molecule organic compounds to inhibit the tyrosine phosphorylation of a peptide substrate.
The substrate phosphorylation assays use the VEGFR3 catalytic domain, which is expressed in Sf. 9 insect cells as an amino-terminal GST-tagged fusion protein. The catalytic domain of human VEGFR3 (AA residues #819–1298 based upon GenBank Accession #XM003852) is cloned by PCR from human Placenta Marathon Ready cDNA (Clontech). The PCR product is subcloned into pFastBac1 vector containing an N-terminal GST tag. The resulting pFB/GST/VEGFR3icd vector is used to generate a recombinant baculovirus for protein expression. The VEGFR3 catalytic domain translated sequence is:
Autophosphorylation allows enzymes to be fully activated prior to addition to peptide substrates. The assays are performed using enzyme that has been activated by autophosphorylation via preincubation in buffer with ATP and magnesium. Activated enzyme is then diluted and added to titrated compound and the substrate mix.
200 nM VEGFR3 enzyme is activated for 45 minutes at room temperature by incubating the enzyme in buffer containing 100 mM HEPES (pH7.2), 75 μM ATP, 0.3 mM DTT, 0.1 mg/mL BSA, and 10 mM MgCl2. After activation, VEGFR3 is diluted 100-fold into 2× dilution buffer: 200 mM HEPES (pH 7.5), 0.2 mg/mL BSA, 0.6 mM DTT. 20 μL of the diluted enzyme mix is added to 20 μL of 2× substrate mix (150 μM ATP, 20 mM MgCl2, 0.72 μM biotinylated peptide) in the assay plates. Final assay conditions are: 100 mM HEPES (pH 7.2), 75 μM ATP, 10 mM MgCl2, 0.1 mg/mL BSA, 0.3 mM DTT, 0.36 μM biotinylated peptide, and 1 nM VEGFR3 enzyme. Assay plates are incubated for 1.5 hours at room temperature before the addition of 30 μL 100 mM EDTA to the wells to stop the enzymatic reaction. 40 μL/well of HTRF mix are then added to the assay plates for the detection of phosphorylated substrate. Final assay concentrations are: 100 mM HEPES (pH7.2), 0.1 mg/mL BSA, 15 nM streptavidin-labeled allophycocyanin (PerkinElmer), and 1 nM europium-labeled anti-phosphotyrosine antibody (PerkinElmer). Assay plates are left unsealed and are counted in a Wallac Multilabel Counter 1420 (PerkinElmer).
The data for dose responses are plotted as % Control calculated with the data reduction formula 100*(U1–C2)/(C1–C2) versus concentration of compound where U is the unknown value, C1 is the average control value obtained for DMSO , and C2 is the average control value obtained for 0.1M EDTA. Data are fitted to the curve described by: y=((Vmax*x)/(K+x)) where Vmax is the upper asymptote and K is the IC50.

T1 sequence (Q02763 762-1104): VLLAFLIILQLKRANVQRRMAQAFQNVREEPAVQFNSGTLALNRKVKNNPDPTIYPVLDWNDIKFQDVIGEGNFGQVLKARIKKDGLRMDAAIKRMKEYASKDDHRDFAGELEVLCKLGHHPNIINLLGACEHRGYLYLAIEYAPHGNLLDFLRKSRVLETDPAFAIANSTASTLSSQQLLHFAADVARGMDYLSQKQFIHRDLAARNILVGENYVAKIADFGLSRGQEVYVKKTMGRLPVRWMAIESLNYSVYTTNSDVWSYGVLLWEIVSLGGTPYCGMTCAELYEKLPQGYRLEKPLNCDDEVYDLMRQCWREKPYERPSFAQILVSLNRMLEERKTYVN

Row | Structure (SMILES) | IC50 [1] [µM] | IC50 [2] [µM] | IC50 [3] [µM] | IC50 [4] [µM] | TIE2 PIC50 TIE2-E2 assay [1] | VEGFR2 PIC50 VEGFR-E2 assay [3] | VEGFR3 PIC50 VEGFR-3-HTRF assay [4]
1 | Cn1nc(-c2ccc(NC(=O)Nc3cc(C(F)(F)F)ccc3F)cc2)c2cnc(NCCCCNS(C)(=O)=O)nc21 [Example 97, N-[4-(3-{4-[3-(2-Fluoro-5-trifluoromethyl-phenyl)-ureido]-phenyl} -1-methyl-1H-pyrazolo[3,4-d]pyrimidin-6-ylamino)-butyl]-methanesulfonamide] | 0.0398 to 0.1 |  | > 10 | 1 to 10 |  |  | 
2 | CC(=O)Nc1ncc2c(-c3ccc(NS(=O)(=O)c4cccc(Cl)c4Cl)cc3)nn(C)c2n1 [Example 71] | 1 to 10 |  | 1 to 10 | 0.1 to 1 |  |  | 
3 | Cn1nc(-c2ccc(NS(=O)(=O)c3cccc(Cl)c3Cl)cc2)c2cnc(NCCCCNS(C)(=O)=O)nc21 [Example 122, 2,3-Dichloro-N-{4-[1-methyl-6-(4-methanesulfonylamino-butylamino)-1H-pyrazolo[3,4-d]pyrimidin-3-yl]-phenyl}-benzenesulfonamide] | 1 to 10 |  | > 10 | 1 to 10 |  |  | 
4 | Cn1nc(-c2ccc(NC(=O)Nc3cc(C(C)(C)C)on3)cc2)c2cnc(NCCN3CCOCC3)nc21 [Example 35] | 0.0398 to 0.1 |  | 1 to 10 | 0.1 to 1 |  |  | 
5 | Cn1nc(-c2ccc(NS(=O)(=O)c3cccc(Cl)c3Cl)cc2)c2cnc(NCCCCO)nc21 [Example 113, 2,3-Dichloro-N-{4-[1-methyl-6-(4-hydroxy-butylamino)-1H-pyrazolo[3,4-d]pyrimidin-3-yl]-phenyl}-benzenesulfonamide] | 1 to 10 |  | 1 to 10 | 1 to 10 |  |  | 
6 | CC(C)n1nc(-c2ccc(NS(=O)(=O)c3cccc(Cl)c3Cl)cc2)c2cnc(NCCN3CCOCC3)nc21 [Example 77, 2,3-Dichloro-N-{4-(1-isopropyl-6-(2-morpholin-4-yl-ether)-1H -pyrazolo[3,4-d]pyrimidin-3-yl}-phenyl}-benzenesulfonamide] | 0.1 to 1 |  | 1 to 10 | 1 to 10 |  |  | 
7 | Cn1nc(-c2ccc(NC(=O)Nc3cc(C(F)(F)F)ccc3F)cc2)c2cnc(NCc3ccncc3)nc21 [Example 143, 1-(2-Fluoro-5-trifluoromethyl-phenyl)-3-{4-[(1-methyl-6-(pyridin-4-ylmethyl)-amino)-1H-pyrazolo[3,4-d]pyrimidin-3-yl]-phenyl} urea] | 0.1 to 1 |  | 1 to 10 | > 10 |  |  | 
8 | Cn1nc(-c2ccc(NC(=O)Nc3cc(C(F)(F)F)ccc3F)cc2)c2cnc(NCCCCCO)nc21 [Example 82] | 0.0398 to 0.1 |  | > 10 | > 10 |  |  | 
9 | Cn1nc(-c2ccc(NC(=O)Nc3cc(C(F)(F)F)ccc3F)cc2)c2cnc(NCCCNS(C)(=O)=O)nc21 [Example 96, N-[3-(3-{4-[3-(2-Fluoro-5-trifluoromethyl-phenyl)-ureido]-phenyl}-1-methyl-1H-pyrazolo[3,4-d]pyrimidin-6-ylamino)-propyl]-methanesulfonamide] | 0.0398 to 0.1 |  | 1 to 10 | 1 to 10 |  |  | 
10 | COCCNc1ncc2c(-c3ccc(NC(=O)Nc4cc(C(F)(F)F)ccc4F)cc3)nn(C)c2n1 [Example 32] |  |  |  |  | +++ (+++ = PIC50 = 7.00 to less than 7.40) | + (+ = PIC50 = 5.00 to less than 6.00) | + (+ = PIC50 = 5.00 to less than 6.00)

More lines, main results first:

Row | IC50 [1] [µM] | IC50 [2] [µM] | IC50 [3] [µM] | IC50 [4] [µM] | Structure (SMILES) | TIE2 PIC50 TIE2-E2 assay [1] | VEGFR2 PIC50 VEGFR-E2 assay [3] | VEGFR3 PIC50 VEGFR-3-HTRF assay [4]
11 | ≤ 0.0398 | ≥ 0.3 |  |  | CN1CCCC1CCNc1ncc2c(-c3ccc(NC(=O)Nc4cc(C(C)(C)C)on4)c(F)c3)nn(C)c2n1 (stereo not drawn) [Example 137] |  |  | 
12 | ≤ 0.0398 | ≥ 0.3 |  |  | CN1CCCC1CCNc1ncc2c(-c3ccc(NC(=O)Nc4cc(C(F)(F)F)ccc4F)cc3)nn(C)c2n1 (stereo not drawn) [Example 89, 1-(2-Fluoro-5-trifluoromethyl-phenyl)-3-{4-[1-methyl-6-[2-(1-methyl-pyrrolidin-2-yl)-ethylamino]-1H-pyrazolo[3,4-d]pyrimidin-3-yl]-phenyl} urea] |  |  | 
13 | ≤ 0.0398 | 0.1 to 0.3 |  |  | CN1CCN(CCCNc2ncc3c(-c4ccc(NC(=O)Nc5cc(C(C)(C)C)on5)c(F)c4)nn(C)c3n2)CC1 [Example 138] |  |  | 
14 | ≤ 0.0398 |  | 1 to 10 | 1 to 10 | Cn1nc(-c2ccc(NC(=O)Nc3cc(C(F)(F)F)ccc3F)c(F)c2)c2cnc(NCCCn3ccnc3)nc21 [Example 132, 1-(2-Fluoro-5-trifluoromethyl-phenyl)-3-{2-fluoro-4-[1-methyl-6-(3-(imidazol-1-ylpropylamino)-1H-pyrazolo[3,4-d]pyrimidin-3-yl)-phenyl]} urea] |  |  | 
15 | ≤ 0.0398 | ≥ 0.3 |  |  | CCN(CC)CCCNc1ncc2c(-c3ccc(NC(=O)Nc4cc(C(F)(F)F)ccc4F)cc3)nn(C)c2n1 [Example 88, 1-(2-Fluoro-5-trifluoromethyl-phenyl)-3-{4-[1-methyl-6-(3-diethylamino-propylamino)-1H-pyrazolo[3,4-d]pyrimidin-3-yl]-phenyl} urea] |  |  | 
16 | ≤ 0.0398 | ≥ 0.3 |  |  | CC1CCCCN1CCCNc1ncc2c(-c3ccc(NC(=O)Nc4cc(C(C)(C)C)on4)c(F)c3)nn(C)c2n1 (stereo not drawn) [Example 135] |  |  | 
17 | ≤ 0.0398 | ≥ 0.3 |  |  | CCN(CC)CCCNc1ncc2c(-c3ccc(NC(=O)Nc4cc(C(C)(C)C)on4)c(F)c3)nn(C)c2n1 [Example 136] |  |  | 
18 | ≤ 0.0398 |  | 1 to 10 | > 10 | CC(=O)NCCNc1ncc2c(-c3ccc(NC(=O)Nc4cc(C(F)(F)F)ccc4F)cc3)nn(C)c2n1 [Example 98] |  |  | 
